Test results as given in US11077136B2, “Compositions for the skin” (BIOIBERICA, S.A.U., priority 2016, dated 2021).

Test system: Human dermal fibroblasts (HDF)
Assay: In vitro wound closure (healing activity) test, area covered with cells
Format: cell-based
Conditions: 48 hours; O-3 0.156 mg/mL, HA 0.0017 mg/mL, DS 0.0004 mg/mL, N 0.0818 mg/mL, ZnO 0.0027 mg/mL; FIG. 4 and 5; p<0.05 where significant
Excerpt: Human dermal fibroblasts (HDF) were used, which were cultivated in dishes with 24 wells with a surface area of 1.99 cm^2, with a density of 7×10^4 cells/well. A mark was made in a straight line approximately 2 mm wide on the surface of the single layer of cells using a sterile plastic tip, creating an area free of cells. […]
The cells were then allowed to migrate to the center of the dish, to cover the area free of cells, in the presence of the compounds being studied, and the area covered with cells was quantified after 48 hours using the TIRF Automated Inverted Microscope—ScanR Olympus […] and a 4× objective lens (total amplification 40×). […]
To determine the healing activity of each treatment, the area covered by cells was quantified, in μm^2, before (T0 h) and after (48 h) the treatment, using image analysis using the software Image J. The results were compared with those obtained for the negative and positive controls.

With `[O]=[Zn]` [ZnO, Zinc oxide] as the compound, how does the “increase in healing (area covered with cells) versus negative control” value read?
The value was “did not cause a significant increase in healing”.
